The text below walks through data of patent US20090280060A1, “PHOTOCHROMIC PROBES” (priority 2004, published 2009).

For series [1], the target named is BSA (Bos taurus, UniProt P02769). Description: Absorption spectra of MC probes attached to a cysteine residue on BSA. It counts as physicochemical. As to conditions: MC state, probe attached to a cysteine residue on BSA. The protocol: BSA: BSA conjugates of the spirobenzopyran reagents were prepared in a similar fashion to that described for G-actin yielding similar labeling ratios (FIG. 5C). The absorption spectrum of the five MC probes attached to a cysteine residue on BSA are centered at 544.5 nm (18,365 cm^−1) for compound 6,534 nm ([…]) for compound 12, 520 nm (19,231 cm^−1) for compounds 9; 503.5 nm (19,861 cm^−1) for compound 13. The difference in the energy of the absorption bands for these conjugates of 1496 cm^−1 is a little less than that found between the same probes on G-actin but again is significant in terms of the free energy of complex formation between BSA and its ligands. These confirm the conclusion that the protein matrix is made up of a complex dipolar landscape.

Series [2] concerns the target T1, G-actin (Oryctolagus cuniculus, UniProt P68135). Description: Absorption spectra of MC state of probes attached to cysteine-374 on G-actin. It counts as physicochemical, Rabbit. On the set-up: Rabbit muscle G-actin was purified according to Marriott; from tissue; host or cells: rabbit muscle. As to conditions: probe attached to cysteine-374 of G-actin. The procedure:
(§1) MATERIALS AND METHODS. Instrumentation. ^1H NMR spectra were measured on a Brucker Ac 300 MHz; mass spectra were carried out on a Micromass AutoSpec for EI, a Micromass LCT for ESI, or a Bruker REFLEX II for MALDI. Absorption spectra were recorded on a Hewlett-Packard 82152 diode array spectrophotometer or a Shimadzu 1601 PC instrument. Fluorescence spectroscopy was performed on an SLM-AB2 instrument (Thermoelectron, Madison, Wis.) or an ISS PC1 (Champaign, Ill.). Light-directed switching of the probes described in this work was achieved by irradiating the sample (120-1000 μL) with the 365 nm or 546 nm lines of a 100 W Hg-arc lamp (Zeiss).
Rabbit muscle G-actin was purified according to Marriott^14 in G-buffer (2 mM Tris, 0.2 mM CaCl2, and 0.2 mM ATP at pH 8.0). The concentration of G-actin was determined by absorption spectroscopy using an extinction coefficient of 3400 M^−1 cm^−1 at 290 nm^14. 1 ml of a 20 μM solution of G-actin was treated with 20 μL of a 10 mM DMF stock solution of each thiol reactive, spirobenzopyran probe. The reaction mixture was left in the dark for 2 hours at room temperature. The protein was centrifuged for 10 min at 2000 g at 4° and applied to a Bio-Rad PD-10 column equilibrated in G-buffer containing 1 mM DTT. […]
G-Actin: The reaction between a ten-fold molar excess of thiol reactive, spirobenzopyran reagents and 20 μM G-actin at 20° is complete within 2 hours. The concentration of spirobenzopyran in each conjugate is determined from the value of the absorption maximum of the SP form of G-actin conjugates using an extinction coefficient of 35,000 M^−1cm^−1 at 350 nm^15 (FIG. 5A) The absorption spectra of the MC and SP states are not affected by the labeling ratio (spirobenzopyran/G-actin, which varies from 0.6 to 0.8 within the different conjugates. Cysteine-374 is located at an important site on G-actin and has been implicated in several important interactions of actin that include protomer-contacts within F-actin^23, the binding of the actin filament capping proteins Gelsolin and CapG^24 and the motor protein, myosin II^25. […]

In series [3] the test system is fertilized xenopus oocytes. Put plainly: Cell division in microinjected fertilized xenopus oocytes. Type of series: in vivo. As to conditions: microinjection at the 4 cell stage. The procedure: Light directed activation of constitutively active caged cofilin. Caged cofilin (constitutively active S3A) was prepared independently of Ghosh et al (2004) using our standard NVOC-Cl approach (Marriott, 1994) that is described above for caged CapG. […] Oocytes were microinjected with caged fluorescein dextran (Molecular Probes) and concentrated caged cofilin (5 mg/ml) at the 4 cell stage—we estimate that the intracellular concentration of cofilin is the two injected cells is between 30˜50 μM. Irradiation of all four cells in the embryo with 365 nm light for 2 seconds generated fluorescein and green fluorescence, and by implication cofilin, from their caged precursors in the two injected cells. […] We conclude from these studies that the increased concentration of cofilin generated by uncaging inhibits actin filament dynamics and cytokinesis (Bamburg, 1999).

In series [4] the target is T1, G-actin. Put plainly: Fluorescence excitation and emission spectra of G-actin conjugates. It counts as physicochemical, Rabbit. More on the design: Rabbit muscle G-actin was purified according to Marriott; from tissue; host or cells: rabbit muscle. Particulars: for MC emission maximum of G-actin conjugate: excitation wavelength of 370 nm.
From the text: FIG. 3. (A), Technical fluorescence excitation spectrum of the G-actin conjugate of compound 12, showing the S0-S2 (centered at 370 nm) and S0-S1 (centered at 558 nm) excitation bands of MC. The emission was monitored at an emission wavelength of 650 nm. (B), Normalized, technical emission spectra of G-actin conjugates of compounds: a), 3 (624 nm); b), 12 (622 nm); c), 6 (628 nm); d), 13 (630 nm). The emission from the MC state in each conjugate was generated using an excitation wavelength of […].
as §1
Further information on MC-solvent interactions can be derived from studying the fluorescence properties of MC. From a practical standpoint, fluorescence from ^1MC* is best studied by exciting the spirobenzopyran with mid-ultraviolet light (S0-S2 transition)—this condition maintains a uniform population of MC excited state molecules (see Jablonski diagram, FIG. 4A). Contrary to the ground state studies, the inventors find that the average energy of the MC fluorescence is insensitive to the solvent (water, 2-propanol, 1,2-propanediol and acetonitrile; data not shown) and to the location of MC probe on G-actin (FIG. 3B).

The target in series [5] is T2, F-actin (Oryctolagus cuniculus, UniProt P68135).
T2 construct: Rabbit muscle G-actin is purified according to Marriott (1994); from tissue; host or cells: rabbit muscle
Put plainly: Prodan-F-actin depolymerization kinetics after dilution. Type of series: biochemical. Particulars: Prodan actin emission ratio 465/502 nm, dilution below the critical concentration.

Setting [6] is: G-actin conjugate, emission monitored at 650 nm.

Sequence of BSA (P02769 25-607): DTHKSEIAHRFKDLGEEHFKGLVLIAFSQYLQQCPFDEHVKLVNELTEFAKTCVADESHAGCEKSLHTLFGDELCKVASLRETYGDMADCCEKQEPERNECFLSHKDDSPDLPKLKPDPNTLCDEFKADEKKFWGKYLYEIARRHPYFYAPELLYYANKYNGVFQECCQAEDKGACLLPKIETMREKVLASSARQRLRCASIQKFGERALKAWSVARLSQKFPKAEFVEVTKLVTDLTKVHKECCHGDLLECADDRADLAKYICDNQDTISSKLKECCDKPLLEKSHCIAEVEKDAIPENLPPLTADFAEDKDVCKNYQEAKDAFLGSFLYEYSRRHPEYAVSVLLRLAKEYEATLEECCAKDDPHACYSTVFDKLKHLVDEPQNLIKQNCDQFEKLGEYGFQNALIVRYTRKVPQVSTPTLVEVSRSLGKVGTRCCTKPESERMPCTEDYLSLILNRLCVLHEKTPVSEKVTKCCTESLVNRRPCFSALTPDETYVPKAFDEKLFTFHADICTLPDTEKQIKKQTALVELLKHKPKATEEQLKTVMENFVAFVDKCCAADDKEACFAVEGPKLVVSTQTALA

As to “4′-(Bromomethyl)spirobenzopyran [compound 9]”, the “MC absorption spectrum centre on BSA” value in series [1] was determined as 520 nm. For the same molecule, the “MC absorption maximum on G-actin” value in series [2] worked out at 500 nm.
Regarding “wild type cofilin: wild type cofilin, inactivated by phosphorylation at Ser-3”, the “effect on cell division / cytokinesis” value in series [3] was “no effect on cell division”.
Take “6′-(Maleimidomethyl)spirobenzopyran [compound 12]”: in series [2], the “MC absorption maximum on G-actin” value is on record as 551.5 nm. Besides, in series [4] (setting [6]), the “S0-S1 excitation band of MC, centre” value was 558 nm and the “S0-S2 excitation band of MC, centre” value is recorded as 370 nm. Moreover, the “MC emission maximum of G-actin conjugate” value in series [4] amounted to 622 nm.
As for “6′-(Bromomethyl)spirobenzopyran [compound 13]”, the “MC absorption spectrum centre on BSA” value in series [1] came to 503.5 nm. Moreover, the “MC absorption maximum on G-actin” value in series [2] is recorded as 551.5 nm. Further, in series [4], the “MC emission maximum of G-actin conjugate” value came to 630 nm.
For `CC1(C)c2ccccc2N(CCN2C(=O)C=CC2=O)C12C=Cc1cc([N+](=O)[O-])ccc1O2` (stereo not shown) [compound 6, 1′-(Maleimidoethyl)spirobenzopyran], the “MC absorption spectrum centre on BSA” value in series [1] came out at 544.5 nm. In addition, in series [4], the “MC emission maximum of G-actin conjugate” value worked out at 628 nm.
For the molecule “8-(Iodomethyl)spirobenzopyran [compound 3]”, the “MC emission maximum of G-actin conjugate” value in series [4] came to 624 nm.

B1: Constitutively active cofilin: constitutively active S3A cofilin (protein, UniProt P23528 2-166, looked up, variant S3A)
Cofilin-1: AAGVAVSDGVIKVFNDMKVRKSSTPEEVKKRKKAVLFCLSEDKKNIILEEGKEILVGDVGQTVDDPYATFVKMLPDKDCRYALYDATYETKESKKEDLVFIFWAPESAPLKSKMIYASSKDAIKKKLTGIKHELQANCYEEVKDRCTLAEKLGGSAVISLEGKPL
For B1, the “effect on rate of F-actin depolymerization” value (shortened to “effect on rate”) in series [5] is reported as “increases the rate of F-actin depolymerization”. Moreover, the “effect on cell division / cytokinesis” value in series [3] is “inhibited cytokinesis”.

B2: Uncaged cofilin: caged cofilin after light-directed uncaging (protein, UniProt P23528 2-166, looked up, variant S3A)
Cofilin-1: B1 Cofilin-1
modifications: uncaged after photolysis
notes: caged cofilin after light-directed uncaging
With B2, the “effect on rate” value in series [5] is given as “restores a substantial fraction of the cofilin activity”.

B3: caged cofilin: constitutively active S3A cofilin caged with 3-5 NVOC groups by the NVOC-Cl approach (protein, UniProt P23528 2-166, looked up, variant S3A)
Cofilin-1: B1 Cofilin-1
modifications: caged with 3-5 NVOC groups
Turning to B3, the “effect on rate” value in series [5] was “did not accelerate the rate of F-actin depolymerization”. Moreover, the “effect on cell division / cytokinesis” value in series [3] is “failed to undergo further divisions”; in series [3] (listed as caged constitutively active cofilin), “inhibits cytokinesis”.
